Assay results: patent publication US8569362B2, “Polyketide molecules as anticancer agents” (Pierre Fabre Medicament, priority 2009, dated 2013)

Experiments:
Format in all cases: cell-based
[1] = test system: Namalwa (Burkitt's lymphoma); assay: Growth inhibition of human cancer cell lines, ATP-lite luminescence, Namalwa; conditions: 48 h incubation, cell survival by ATP luminescence
Method: (§1) The cancerous cells [lines A549 (non small cell lung cancer), BxPC3 (cancer of the pancreas), LoVo (colon cancer), MCF7 (breast cancer), Namalwa (Burkitt's lymphoma) and SK-OV-3 (ovarian cancer)] were cultured in a 96-well plate in RPMI 1640 medium without phenol red (Seromed) to which was added 10% of foetal veal serum (100 μl/well, 1 to 3.10^4 cells/ml depending on the considered line). After an incubation of 24 h at 37° C. in an incubator with 5% CO2, the medium was replaced by that containing the compound to be tested (molecule I-1), after which the plates were incubated for an additional 48 h. Cell survival was evaluated by measurement of the luminescence after release of ATP in the medium using the cell lysis solutions, luciferase and luciferine contained in the ATP-lite-MTM kit, as recommended by the manufacturer (Packard, Rungis, France). Each experimental condition was tested at least three times in sextuplets. The table below presents the IC50 data (expressed in M) of the molecule I-1, as a function of the different cell lines tested.

[2] = test system: A549 (non small cell lung cancer); assay: Growth inhibition of human cancer cell lines, ATP-lite luminescence, A549; conditions: A549, 48 h incubation, cell survival by ATP luminescence
Method: as §1

[3] = test system: BxPC3 (cancer of the pancreas); assay: Growth inhibition of human cancer cell lines, ATP-lite luminescence, BxPC3; conditions: BXPC-3, BxPC3, 48 h incubation, cell survival by ATP luminescence
Method: as §1

SK-OV-3 (ovarian cancer) = assay: Growth inhibition of human cancer cell lines, ATP-lite luminescence, SK-OV-3; conditions: SK-OV-3, 48 h incubation, cell survival by ATP luminescence
Method: as §1

LoVo (colon cancer) = assay: Growth inhibition of human cancer cell lines, ATP-lite luminescence, LoVo; conditions: 48 h incubation, cell survival by ATP luminescence
Method: as §1

MCF7 (breast cancer) = assay: Growth inhibition of human cancer cell lines, ATP-lite luminescence, MCF7; conditions: MCF7, 48 h incubation, cell survival by ATP luminescence
Method: as §1

[4] = test system: HeLa tumoral cells (human carcinoma); assay: Cellular phenotype (immunofluorescence and microscopy; α-tubulin, γ-tubulin, DAPI); conditions: 24 h treatment
Method: The HeLa tumoral cells (human carcinoma) were cultured for 24 h on 12 mm diameter glass slides, placed in 24-well culture plates (7.10^3 cells per well).
The cells were then treated for a new period of 24 h by the molecule I-1 at the tested concentrations. […] The DNA was labelled with DAPI (0.2 μg/ml—15 minutes—37° C.). After the different labellings, the slides were dried and mounted in a Vectashield mounting liquid (AbCys, France), before being observed through an epi-fluorescence microscope (Axiovert 200M; objective×63 Plan Apochromat NA, 1.4; ZEISS, France).

With `COC(CCC(C)C1(O)CC(C(C)/C=C(C)/C=C(\C)C(O)C(C)C(O)C(C)C(OC)C(C)/C=C/C=C/C=C/C(=O)O)OC(=O)C1O)CC(CC(O)C(C)C/C=C/C(C)C1CC(C(C)CCC(C)O)C(O)C(=O)O1)OC` (stereo not shown) [molecule I-1] the IC50 [1] was 1.1 nM, the IC50 [2] was 0.82 nM and the IC50 [3] was 0.47 nM. The IC50 (SK-OV-3 (ovarian cancer)) was 0.33 nM, the IC50 (LoVo (colon cancer)) was 0.081 nM and the IC50 (MCF7 (breast cancer)) was 0.011 nM. The “Centrosomes of interphasic cells (γ-tubulin labelling)” value ([4]; between 5.10^−9M and 5.10^−8M) was “often separated and normally labelled by γ-tubulin”, the “Microtubular cytoskeleton of interphasic cells (labelling by α-tubulin)” value ([4]; between 5.10^−9M and 5.10^−8M) was “devoid of microtubular cytoskeleton” and the “Centrosomes of mitotic cells (γ-tubulin labelling)” value ([4]; between 10^−9M and 5.10^−8M) was “normally present and labelled by γ-tubulin”. For the same compound, the “Mitotic cells: mitotic block and microtubules (α-tubulin labelling)” value ([4]; dose effect between 10^−9M and 5.10^−8M) was “blocked in prometaphase without microtubules”.
